# Reference: article PMC9259591, “Irigenin, a novel lead from Iris confusa for management of Helicobacter pylori infection with selective COX-2 and HpIMPDH inhibitory potential” (Scientific Reports, 2022)
# Where “and” joins values, the source holds several entries; their conditions need not be identical. Equal entries are not always repeated. Where two headings read alike, the source gives them in different places.
# Key:
# ovine COX-1 = target: T1, ovine COX-1 (Ovis aries, UniProt P05979); test: COX-1 inhibitory activity, colourimetric COX inhibitor screening assay kit; format: biochemical
# T1 construct: purchased
# T1 sequence (P05979 25-600): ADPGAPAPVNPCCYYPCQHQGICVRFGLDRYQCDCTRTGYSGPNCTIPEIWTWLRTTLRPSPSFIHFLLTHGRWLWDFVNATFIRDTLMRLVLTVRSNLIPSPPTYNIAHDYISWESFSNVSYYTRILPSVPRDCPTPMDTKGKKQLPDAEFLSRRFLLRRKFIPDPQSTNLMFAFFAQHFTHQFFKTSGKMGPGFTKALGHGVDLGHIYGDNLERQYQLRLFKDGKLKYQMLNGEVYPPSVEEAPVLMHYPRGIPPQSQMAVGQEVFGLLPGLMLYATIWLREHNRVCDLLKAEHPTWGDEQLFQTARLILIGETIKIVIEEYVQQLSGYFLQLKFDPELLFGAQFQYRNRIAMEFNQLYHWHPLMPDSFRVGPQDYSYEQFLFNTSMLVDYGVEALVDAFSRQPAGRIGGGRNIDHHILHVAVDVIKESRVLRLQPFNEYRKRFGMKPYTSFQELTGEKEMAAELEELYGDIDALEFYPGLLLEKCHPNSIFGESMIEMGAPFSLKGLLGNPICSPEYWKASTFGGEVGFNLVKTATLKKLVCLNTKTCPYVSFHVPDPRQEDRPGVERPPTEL
# Procedure: (§1) The inhibitory COX activity was assayed colourimetrically by examining the inhibition of the ovine COX-1 and human recombinant COX-2 enzymes as described by George et al.[38], using a COX inhibitor screening assay kit. The detailed procedures were described in the supplementary file.
# (§2) The inhibitory COX activity was assayed colourimetrically by examining the inhibition of the ovine COX-1 and human recombinant COX-2 enzymes as described by George et al. ^2, using a COX inhibitory screening assay kit. This assay determines the COX peroxidase activity by monitoring the appearance of N,N,N',N'-tetramethyl-p-phenylenediamine (TMPD). Assay buffer (150 μL 0.1 M Tris–HCl pH 8.0), 10 μL heme and 10μL enzyme (COX-1 or COX-2) were added in each well. Ten μL of each tested sample concentration was added to each well and incubated for 15 minutes at 37°C. After incubation, 20 μL of TMPD was added to each well. For initiating the reaction, 10 μL 10 mM arachidonic acid was added and the plates were further incubated for another 2 minutes at 37°C. For terminating the reaction, 50 μL 1 N HCl and saturated stannous chloride were added.
# (§3) Reaction mixture containing assay buffer and heme acted as the blank and a mixture with either COX-1 or COX-2 assay buffer and heme acted as the 100% initial activity (IA). […] The absorbances of oxidized TMPD (blue colour) were read in ELISA plate reader at 590 nm. The % inhibition was calculated using the following formula:
# (§4) COX % Inhibition= [(100%IA−Inhibitor)/ 100% IA x 100]. Where, IA: 100% initial activity.
# (§5) The concentration at which the tested sample produces 50% inhibition of COX-1 and/or COX-2 (IC50) was determined. The selectivity index (SI) was calculated also as IC50 (COX-1)/ (COX-2).
# human recombinant COX-2 = target: T2, human recombinant COX-2 (Homo sapiens, UniProt P35354); test: COX-2 inhibitory activity, colourimetric COX inhibitor screening assay kit; format: biochemical
# T2 construct: purchased
# T2 sequence (P35354 18-604): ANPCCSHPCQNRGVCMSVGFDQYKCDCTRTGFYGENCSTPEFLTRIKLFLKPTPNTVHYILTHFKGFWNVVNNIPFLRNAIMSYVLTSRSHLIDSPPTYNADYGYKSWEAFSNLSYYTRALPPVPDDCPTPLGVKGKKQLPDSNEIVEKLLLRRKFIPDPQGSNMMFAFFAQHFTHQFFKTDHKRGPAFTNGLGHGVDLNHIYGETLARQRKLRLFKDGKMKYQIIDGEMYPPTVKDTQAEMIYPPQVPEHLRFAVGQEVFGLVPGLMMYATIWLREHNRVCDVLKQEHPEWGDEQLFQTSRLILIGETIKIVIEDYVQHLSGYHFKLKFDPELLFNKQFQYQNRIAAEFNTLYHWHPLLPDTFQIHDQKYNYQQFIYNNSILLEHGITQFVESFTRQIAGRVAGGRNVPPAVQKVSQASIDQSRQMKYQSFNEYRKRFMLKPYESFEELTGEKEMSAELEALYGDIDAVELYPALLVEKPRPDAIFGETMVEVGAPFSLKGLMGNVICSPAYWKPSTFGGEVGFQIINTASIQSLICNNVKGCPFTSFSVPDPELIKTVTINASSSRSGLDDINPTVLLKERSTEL
# Procedure: as §1, §2, §3, §4, §5
# [1] = system: RAW 264.7 macrophage cell line (NO); test: nitric oxide (NO) inhibitory activity in lipopolysaccharide-stimulated macrophages; format: cell-based, murine; details: Mus musculus, RAW264.7, RAW 264.7 cells, 1 µg/mL lipopolysaccharide
# Procedure: The detailed procedures were described in the supplementary file.
# The cell was incubated at 37 °C in 5% carbon dioxide. RAW 264.7 cells were seeded onto a 96-well plate (1×10^5 cells/well) and incubated for 24 h. […] Followed by incubation, the cells stimulated with 1µg/mL of lipopolysaccharide for another 24 h. The supernatant was gently transferred to new 96-well plates and used for NO determination. L-N 6 - (1-iminoethyl) lysine hydrochloride), is used as standard drug. The absorbance (Abs) was measured in a microplate reader at 540 nm ^3. The percentage inhibition was calculated using the following formula:
# Inhibition (%) = 1-[Control-Test] Control × 100.
# H. pylori ATCC 700392 = test: anti-Helicobacter pylori activity, microwell dilution method with MTT; format: cell-based; details: for MIC: read-out: MIC (H. pylori)
# Procedure: The anti-Helicobacter pylori activity of the PF and NPF as well as the isolated compounds was evaluated against H. pylori ATCC 700392 (type strain, obtained from the American Type Culture Collection unit (ATCC), using microwell dilution method and clarithromycin as standard drug[37]. The detailed procedures were described in the supplementary file.
# The anti-Helicobacter pylori activity of the PF and NPF as well as the isolated compounds was evaluated against H. pylori ATCC 700392 (a type strain, obtained from the American Type Culture Collection unit (ATCC), using microwell dilution method and clarithromycin as standard drug ^1. The tested samples were prepared in dimethyl sulfoxide and successive ten twofold dilutions (125- 0.24 µg/mL) were carried out in a 96-well plate. Each microplate well included forty μL of Brain Heart Infusion growth medium and 10% fetal bovine serum (FBS), ten μL of inoculum and fifty μL of the tested sample. The plates were incubated for 3 days, in 5% oxygen, 10% carbon dioxide, 85 % nitrogen atmosphere at 37°C. Forty μL of 3- (4, 5-dimethyl-thiazol-2-yl)- 2,5-diphenyl-tetrazolium bromide (MTT) at a final concentration of 0.5 mg/mL freshly prepared in H2O was added to each well and incubated for 30 min. The bacteria were biologically active when change to purple color was observed ^1. While no change in MTT color indicated inhibition. Solvent control (DMSO) and the standard antibiotic (clarithromycin) were used as negative and positive controls, respectively. The H. pylori inhibition % was calculated using the given formula:
# % Inhibition = Abs control – Abs sample × 100 /Abs control.
smiles,measurement,setting,value
"COc1c(O)cc2occ(-c3ccc(O)cc3)c(=O)c2c1O [Tectorigenin (P4), 4′,5,7-trihydroxy-6-methoxyisoflavone]",IC50,ovine COX-1,407 µM
same,IC50,"human recombinant COX-2; human recombinant COX-2, ND = not detected",189 µM
same,SI (COX-1/COX-2),human recombinant COX-2; selectivity index calculated as IC50 (COX-1)/(COX-2),2.16
same,IC50,[1],> 416 µM
same,IC50,[1]; ND = not detected,> 125 µg/mL
same,MIC,"H. pylori ATCC 700392; Helicobacter pylori, ATCC700392",15.6 µg/mL and 52 µM
same,MIC (H. pylori),"H. pylori ATCC 700392; concentration required for 100% inhibition, H. pylori ATCC 700392, ND = not detected",15.63 µg/mL
same,MIC,"H. pylori ATCC 700392; concentration required for 100% inhibition, H. pylori ATCC 700392",52.05 µM
